{"source": "patent EP1951194B1", "about": "“ANTIMICROBIAL DECAPEPTIDE COMPOSITION FOR ORAL HYGIENE” (U.S. Government, as represented by the Secretary of the Army, priority 2005, dated 2018)", "key": {"oral biofilms [1]": {"test_system": "oral biofilms", "assay": "In vitro plaque assay, viable counts of biofilms on saliva-coated HA disks", "format": "cell-based, human salivary bacteria", "conditions": "for reduction of viability, intact 66 h-old oral biofilms, compared to water treatment: KSL 200 µg/ml, benzalkonium chloride 0.001%, alone or combined, chlorhexidine positive control", "protocol": "In conjunction with the dual flow cell system, a modification of an in vitro plaque model of biofilm formation described by Guggenheim et al. (Guggenheim et al., 2001) was used to determine the effects of tested antimicrobials and other agents on developed oral biofilms (see Appendix I for details). HA disks (Clarkson, south Williamsport, PA) were employed as substrates for salivary bacteria to form biofilms. […] Following 30 min exposure at 37°C, disks were rinsed with 3 × 1 ml of saline and transferred to sterile 15 ml polypropylene tubes containing 1 ml PBS. Biofilm cells adherent to surfaces (after treatment) were recovered by sonicating for 2 min at 5 watts with a Microson ultrasonic cell disrupter equipped with a cup horn (Misonix Inc., Farmingdale, NY). Settings including the time interval used in the sonication were pre-determined empirically to yield maximal recovery of adherent biofilm cells. The effect of KSL on disrupted biofilms was assessed by recovering biofilm cells from HA disks (45 h-old biofilms) through sonication as described above. The detached biofilm cells (in sterile dH2O) were mixed with an equal volume of aqueous KSL to obtain a final peptide concentration of 200 µg/ml, and the reaction mixtures incubated at 37°C for 30 min. The interactions of KSL and suspended biofilm cells were terminated by washing in PBS. To determine the effect of the surface-active agent (benzalkonium chloride; Sigma, St. […] Viable counts of biofilm cells derived from treated disks or disrupted biofilms were determined by spiral plating serially diluted samples onto blood agar plates. […] The 45 h-old biofilms were exposed to chlorhexidine for 1 min, and to water for 30 min at 37°C."}, "oral biofilms [2]": {"test_system": "oral biofilms", "assay": "Live/dead staining of treated biofilms, confocal laser scanning microscopy", "format": "cell-based, human salivary bacteria", "conditions": "biofilms on saliva-coated HA surfaces, BacLight, compared to control", "method": "Untreated (a-b) and treated (c-d). Images were obtained at intervals of 2 h (a, c) and 8 h (b, d) following inoculation. […] Images of treated versus untreated biofilm cells were obtained at intervals of 2 h (a, d), 6 h (b, e), and 10 h (c, f) after inoculation of salivary bacteria into the parallel chambers of the dual flow cell. […] (C) Confocal images of control and treated biofilms grown on saliva-coated HA surfaces. Live/Dead BacLight™ Viability kit (Molecular Probes, Eugene, OR) was used to assess the viability of biofilm cells exposed to different treatments. BacLight assay solution was prepared as described by the manufacturer and the specimens were stained in dark at room temperature for 15 min. […] An excitation wavelength of 488 nm was used and the fluorescence light emitted was collected by two separate emission filters, 500-530 nm (SYTO 9, live), and 650-710 nm (propidium iodide, dead)."}, "[3]": {"format": "physicochemical", "conditions": "pH 5.7", "protocol": "Test solutions of KSL were prepared using a stock peptide solution of 10 mg/ml in deionized water. The degradation of KSL peptide was investigated in sodium acetate (pH 4), sodium phosphate (pH 7.4) and sodium borate (pH 9) buffers at 0.1 M buffer concentration. Each buffer solution containing 200 µg/ml of KSL was incubated in a temperature-controlled oven at 25, 37 and 55°C, respectively. Samples were taken at pre-determined times and analyzed under HPLC conditions described above. The stability of KSL was studied at 37°C in artificial saliva over a three day period. Artificial saliva was used in the in vitro release studies in an attempt to simulate actual conditions of use. The ingredients of the artificial saliva were as follows: sodium chloride, 0.844 g; potassium chloride, 1.200 g; calcium chloride dihydrate, 0.193 g; magnesium chloride hexahydrate, 0.111 g; potassium phosphate dibasic, 0.342 g; water to make to 1000 ml. The pH was adjusted with hydrochloric acid solution to pH 5.7 ± 0.1 [26]."}, "[4]": {"format": "physicochemical", "protocol": "The chewing gum formulations were prepared following a procedure described previously. The gum base was heated at a temperature between 50 and 60°C for melting. When the gum base was of the proper fluid consistency, the KSL was added as a fine powder along with the other components. The temperature was kept constant while mixing the components with the gum base in a mortar. After mixing, the homogenous chewing gum mixture was extruded, cut into squares of approximate shape and size and hardened at room temperature overnight. The composition of the gum was as follows: 550 mg of gum base, 420 mg of sorbitol, 10 mg of mannitol, 10 mg of saccharin, and 10, 20 or 30 mg of KSL (total weight: approximately 1 g). In vitro release study of KSL from chewing gums was carried out using an in vitro chewing release apparatus consisting of two modules (AB FIA, Lund, Sweden) (Fig. 1). Each module consists of a thermostatted glass cell in which two vertically oriented pistons holding an upper and a lower chewing plate are mounted. The cells were filled with 40 ml of artificial saliva and the chewing gum was loaded onto the lower chewing surface. […] The released amount of KSL was determined by RP-HPLC."}}, "note": "Entries after “also recorded” stand apart in the source; their conditions may differ. Ends that are not written are not given here.", "data": [{"compound": "[H]/N=C(\\N/C(=N/[H])NCCCCCCNC(=N)NC(=N)Nc1ccc(Cl)cc1)Nc1ccc(Cl)cc1", "note": "[chlorhexidine, chlorhexidine digluconate]", "values": [{"measurement": "reduction of viable counts, intact biofilms", "setting": "oral biofilms [1]; intact 45-h-old biofilms, KSL 200 µg/ml 30 min at 37°C, chlorhexidine 0.12% 1 min", "result": "more reduction in viability; also recorded: larger reduction of viable counts"}, {"measurement": "viability of biofilm cells by live/dead staining", "setting": "oral biofilms [2]", "result": "significantly reduced the viability"}]}, {"compound": "benzalkonium chloride", "values": [{"measurement": "reduction of viability, intact 66 h-old oral biofilms, compared to water treatment", "setting": "oral biofilms [1]", "result": "less effect on the viability"}, {"measurement": "reduction of viability, intact 66 h-old oral biofilms, compared to water treatment", "setting": "oral biofilms [1]; listed as Bzl", "result": "no significant reductions in viability"}, {"measurement": "viability of biofilm cells by live/dead staining", "setting": "oral biofilms [2]", "result": "less impact on the viability"}]}, {"compound": "KKVVFKVKFK-NH2 [KSL, Lys-Lys-Val-Val-Phe-Lys-Val-Lys-Phe-Lys-NH2]", "values": [{"measurement": "degradation in artificial saliva (HPLC)", "setting": "[3]", "result": "no degradation peak detected"}, {"measurement": "stability of KSL in the gum formulations manufactured at 50-60°C (HPLC of released KSL)", "setting": "[4]", "result": "only an intact KSL peak"}]}]}
